The results in this text go back to ChEMBL document CHEMBL4011651, “Discovery of the Irreversible Covalent FGFR Inhibitor 8-(3-(4-Acryloylpiperazin-1-yl)propyl)-6-(2,6-dichloro-3,5-dimethoxyphenyl)-2-(methylamino)pyrido[2,3-d]pyrimidin-7(8H)-one (PRN1371) for the Treatment of Solid Tumors” (J Med Chem, 2017).

Data set [1] can be described thus: in vitro. The settings on record: mouse, whole blood.
In the next data set the test system is Plasma. Put plainly: Plasma concentration in rat at 10 mg/kg, po measured at 12 hrs post dose. It counts as ADME, organism-based. Conditions: in vivo; call rule not given here.
Data set [2] can be described thus: Clearance in Sprague-Dawley rat at 2 mg/kg, iv. It counts as ADME, organism-based. The settings on record: in vivo.
Data set [3] in a line: Volume of distribution at steady state in Sprague-Dawley rat at 2 mg/kg, iv. In kind it is ADME, organism-based. The settings on record: in vivo, read-out: Vdss.
The nature of data set [4]: Half life in Sprague-Dawley rat at 2 mg/kg, iv. Conditions: in vivo. It counts as ADME, organism-based.
A short description of data set [5]: Cmax in Sprague-Dawley rat at 2 mg/kg, iv. It counts as ADME, organism-based. Also noted: dose 2 mg/kg, route intravenous. Conditions: in vivo.
Data set [6] can be described thus: Half life in Sprague-Dawley rat at 20 mg/kg, po. In kind it is ADME, organism-based. Conditions: in vivo.
Data set [7] in a line: Cmax in Sprague-Dawley rat at 20 mg/kg, po. The arrangement: dose 20 mg/kg, route oral. In kind it is ADME, organism-based. The settings on record: in vivo.
The nature of data set [8]: AUC in Sprague-Dawley rat at 20 mg/kg, po. It counts as ADME, organism-based. The settings on record: in vivo.
The nature of data set [9]: Clearance in Beagle dog at 2 mg/kg, iv. In kind it is ADME, organism-based, Canis lupus familiaris. Conditions: in vivo.
Data set [10] is described as follows: Volume of distribution at steady state in Beagle dog at 2 mg/kg, iv. In kind it is ADME, organism-based, Canis lupus familiaris. Conditions: in vivo, read-out: Vdss.
Data set [11] can be described thus: Cmax in Beagle dog at 2 mg/kg, iv. It counts as ADME, organism-based, Canis lupus familiaris. Also noted: dose 2 mg/kg, route intravenous. The settings on record: in vivo.
Data set [12] can be described thus: AUC in Beagle dog at 2 mg/kg, iv. In kind it is ADME, organism-based, Canis lupus familiaris. Conditions: in vivo.
The nature of data set [13]: Cmax in Beagle dog at 10 mg/kg, po. Also noted: dose 10 mg/kg, route oral. It counts as ADME, organism-based, Canis lupus familiaris. Conditions: in vivo.
Data set [14] is described as follows: AUC in Beagle dog at 10 mg/kg, po. In kind it is ADME, organism-based, Canis lupus familiaris. Conditions: in vivo.
Data set [15] is described as follows: Oral bioavailability in Beagle dog at 10 mg/kg. Conditions: in vivo. It counts as ADME, organism-based, Canis lupus familiaris.
The nature of data set [16]: Clearance in cynomolgus monkey at 1.23 mg/kg, iv. The settings on record: in vivo. It counts as ADME, organism-based, Macaca fascicularis.
The nature of data set [17]: Volume of distribution at steady state in cynomolgus monkey at 1.23 mg/kg, iv. It counts as ADME, organism-based, Macaca fascicularis. Conditions: in vivo, read-out: Vdss.
Data set [18] can be described thus: Half life in cynomolgus monkey at 1.23 mg/kg, iv. It counts as ADME, organism-based, Macaca fascicularis. The settings on record: in vivo.
The nature of data set [19]: Cmax in cynomolgus monkey at 1.23 mg/kg, iv. In kind it is ADME, organism-based, Macaca fascicularis. Also noted: dose 1.23 mg/kg, route intravenous. The settings on record: in vivo.
Data set [20] can be described thus: AUC in cynomolgus monkey at 1.23 mg/kg, iv. It counts as ADME, organism-based, Macaca fascicularis. The settings on record: in vivo.
Data set [21] in a line: Half life in cynomolgus monkey at 10 mg/kg, po. It counts as ADME, organism-based, Macaca fascicularis. The settings on record: in vivo.
Data set [22] is described as follows: Cmax in cynomolgus monkey at 10 mg/kg, po. It counts as ADME, organism-based, Macaca fascicularis. Also noted: dose 10 mg/kg, route oral. Conditions: in vivo.
Data set [23] is described as follows: AUC in cynomolgus monkey at 10 mg/kg, po. It counts as ADME, organism-based, Macaca fascicularis. The settings on record: in vivo.
A short description of data set [24]: Oral bioavailability in cynomolgus monkey at 10 mg/kg. In kind it is ADME, organism-based, Macaca fascicularis. The settings on record: in vivo.
Data set [25] can be described thus: Plasma concentration in rat at 10 mg/kg, po measured at 1 hr post dose. It counts as ADME, organism-based.
Another data set can be described thus: in vivo. The settings on record: Sprague-Dawley, rat, iv, 2 mg/kg.
A short description of data set [26]: in vitro. Conditions: human, plasma.
Data set [27] in a line: in vitro. The settings on record: human, whole blood.

Molecules are shown by their SMILES.

`C=CC(=O)Nc1ccc(CCn2c(=O)c(-c3cc(OC)cc(OC)c3Cl)cc3cnc(NC)nc32)cn1` yielded a half-life in the data set “in vitro [1]” of 51 min.
Take `C=CC(=O)N1CCN(CCCn2c(=O)c(-c3c(Cl)c(OC)cc(OC)c3Cl)cc3cnc(NC)nc32)CC1` [PRN-1371]: the Drug uptake entry in the data set with Plasma is given as “Not Active”. The values for the clearance in data set [2], in [9] and in data set [16] were 9.6 L/h/kg, 7.02 L/h/kg and 2.57 L/h/kg, respectively. Besides, the Vd worked out at 7.2 L/kg in data set [3], 2.9 L/kg in data set [10] and 1.14 L/kg in data set [17]. In addition, the half-life in [4] was 45.8 min; in data set [6], 226 min; in data set [18] it was 20.9 min; in data set [21], 29.2 min. Also, the Cmax in data set [5] came to 0.596 µg/mL; in data set [7], 1.79 µg/mL; in data set [11], 1.09 µg/mL; in data set [13] it was 1.1 µg/mL; in data set [19] it was 0.999 µg/mL; in data set [22] it was 0.0958 µg/mL. For the same compound, the AUC in data set [8] worked out at 4.35 µg·h/mL; in [12], 0.284 µg·h/mL; in data set [14], 1.34 µg·h/mL; in data set [20], 0.472 µg·h/mL; in data set [23], 0.0844 µg·h/mL; in the data set “in vivo” it was 0.208 µg·h/mL. The figures for the bioavailability in [15] and in [24] were 94% and 2.3%, respectively. This compound returned a concentration at 1 h in data set [25] of 0.538 µg/mL. The share remaining at 2 h in “in vitro [26]” is 70%; in the data set “in vitro [27]”, 73%.
